Data from patent US20110021471A1, “REDUCING Abeta42 LEVELS AND Abeta AGGREGATION” (priority 2007, published 2011).

Legend:
[1] = tested on: H4Bri-C99 (CTF-3)
Protocol: FIG. 6. […] Parent GSMs and biotin tagged photoactivatable GSMs were evaluated for their effects on Aβ secreted from H4Bri-C99 (CTF-3). Cells were treated with compounds for 6 hours and Aβ measured by ELISA. […] Changes in Aβ (percent control)±s.e.m., n=3.
(§1) Photoaffinity labelling. All experiments used the following general protocol. Samples (recombinant or synthetic peptides, cell lysates and membrane preparations) were exposed in borosilicate test tubes to ultraviolet light (350 nm) in a Rayonet Photoreactor R100 (RPR-3500 lamps, Southern New England Ultra Violet Company) in a cold room (4° C.) for 30 minutes or as otherwise noted. Crosslinked samples were analyzed by ELISA for biotin incorporation, or analyzed directly by SDS-PAGE (Criterion-XT, Bio-Rad), or after precipitation with streptavidin ultralink plus beads (Pierce). After immunblotting, proteins were detected using chemiluminesence (ECL Plus, GEHealthcare) or near-infrared fluorescence (LiCor Odyssey). Full-length APP and APP CTFs (CTF83, CTF99) were detected with CT20, a rabbit polyclonal antibody against the C-terminus of APP. Biotin was detected with an affinity-purified rabbit polyclonal antibody (Bethyl). Cell-based screens for amyloid-β modulation. Human H4 neuroglioma cells (American Type Culture Collection, ATCC) expressing wild-type APP695 protein or CTF105 fused to secreted alkaline phosphatase which is efficiently processed to APP CTFs (CTF83, CTF99) and produce high levels of amyloid-β, were used for the cell-based screens as previously described. Cells were incubated for 5-6 hours in the presence of the various compounds in Opti-Mem culture medium containing 1% fetal bovine serum. Compounds were dissolved in dimethylsulphoxide (DMSO; 0.5% final concentration) and diluted 200-fold. Media was analyzed for various amyloid-β species (40, 42 and total) using ELISAs as described herein. The EC50 values for changes in amyloid-β species were calculated by fitting sigmoid dose-response curves using nonlinear regression in Prism (GraphPad) and are shown as values±s.e.m. Statistical analysis. Data are presented as either percentage control or mean±s.e.m. Results were analyzed using Prism (Graph Pad) with t-tests or one-way analysis of variance analyses (ANOVAs) with Dunnett's post-hoc correction for comparison of multiple samples to a control. Statistical significance is shown as P,0.05 (one asterisk), P,0.01 (two asterisks) or P,0.001 (three asterisks).

[2] = target: amyloid-β peptides (Aβ1-40, Aβ1-36, Aβ1-28, Flag-Aβ25-36) (Homo sapiens, UniProt P05067); assay: Photoaffinity labelling of amyloid-β peptides; assay type: binding
Protocol: (§2) FIG. 1. […] The top panel is for anti-biotin staining; the middle panel is for anti-FLAG staining; and the bottom panel is an overlay of anti-biotin (red and anti-Flag green, LiCor Odyssey imaging). (E) Same samples as in D, but analyzed using an ELISA. Following crosslinking, C100Flag and N100 Flag were captured using anti-FLAG plate, and biotin incorporation was measured using streptavidin-HRP. […] Fen-B (50 μM) was crosslinked to Aβ (10 μM). Biotin labeling was measured following capture with an anti-Aβ1-16 antibody and detection with streptavidin-HRP.
as §1
Because the putative binding region of GSMs is also found in full-length APP, labeling of both APP fragments in cells was assayed.

[3] = target: T1, APP(C100)-Flag (Homo sapiens, UniProt P05067); assay: Photoaffinity labelling of APP(C100)-Flag and competition; assay type: binding
T1 construct: APP(C100)-Flag, comprising the 99 C-terminal residues of APP plus a methionine at the N-terminus; added methionine (N)
T1 sequence (P05067 672-770 limits assumed): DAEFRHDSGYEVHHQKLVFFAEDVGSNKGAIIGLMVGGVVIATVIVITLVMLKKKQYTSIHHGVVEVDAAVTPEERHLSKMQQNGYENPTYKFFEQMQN
Protocol: as §2, §1
The ability of a purified, recombinant Flag-tagged γ-secretase substrate derived from APP (APP(C100)-Flag, comprising the 99 C-terminal residues of APP plus a methionine at the N-terminus) to be labeled by Fen-B and Flurbi-BpB was tested.

[4] = target: T2, Notch (C100)-Flag (Mus musculus, UniProt Q01705); assay: Photoaffinity labelling of Notch (C100)-Flag; assay type: binding
T2 construct: a recombinant substrate derived from mouse Notch (Notch (C100)-Flag)
T2 sequence (Q01705 1711-1809 limits assumed): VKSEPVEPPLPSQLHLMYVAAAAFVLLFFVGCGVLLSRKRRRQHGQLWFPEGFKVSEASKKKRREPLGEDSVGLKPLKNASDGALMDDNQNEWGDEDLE
Protocol: Photoaffinity labelling. All experiments used the following general protocol. Samples (recombinant or synthetic peptides, cell lysates and membrane preparations) were exposed in borosilicate test tubes to ultraviolet light (350 nm) in a Rayonet Photoreactor R100 (RPR-3500 lamps, Southern New England Ultra Violet Company) in a cold room (4° C.) for 30 minutes or as otherwise noted. Crosslinked samples were analyzed by ELISA for biotin incorporation, or analyzed directly by SDS-PAGE (Criterion-XT, Bio-Rad), or after precipitation with streptavidin ultralink plus beads (Pierce). After immunblotting, proteins were detected using chemiluminesence (ECL Plus, GEHealthcare) or near-infrared fluorescence (LiCor Odyssey). Full-length APP and APP CTFs (CTF83, CTF99) were detected with CT20, a rabbit polyclonal antibody against the C-terminus of APP. Biotin was detected with an affinity-purified rabbit polyclonal antibody (Bethyl). Cell-based screens for amyloid-β modulation. […] Media was analyzed for various amyloid-β species (40, 42 and total) using ELISAs as described herein. The EC50 values for changes in amyloid-β species were calculated by fitting sigmoid dose-response curves using nonlinear regression in Prism (GraphPad) and are shown as values±s.e.m. […]

[5] = target: T3, γ-secretase (PSEN1, NCSTN, APH1, PEN2) (UniProt +P49768+Q96BI3+Q9NZ42); assay: Photoaffinity labelling of purified γ-secretase preparation; assay type: binding; details: Fen-B 300 μM
T3 construct: made in house; host or cells: CHO c-30 (γ-30) cells

[6] = target: γ-secretase (Homo sapiens, UniProt P49768); assay: Cell-free in vitro γ-secretase assay; assay type: biochemical
Protocol: FIG. 5. Fenofibrate-Biotin (Fen-B) is an Aβ42 raising GSM that labels cell-derived APP-CTF. (A) The effects of fenofibrate and fenofibrate-biotin (Fen-B) on Aβ production were investigated in a cell-free in vitro γ-secretase assay performed as described in the methods. […] Percent control Aβ species±s.e.m., n=2. (B) Fen-B labels APP-CTFs from cells lysates. CHAPSO solubilized membrane fractions from H4 APP-CTF-105-AP cells were irradiated (350 nm) in the presence of Fen-B (50 μM) for 30 minutes. Biotinylated material was precipitated with streptavidin overnight (SAv). Beads were washed (3×) and then incubated with XT sample buffer, heated to 95° C., run on 12% Criterion XT gels, and transferred to nitrocellulose membranes. Blots were probed for biotin (Bethyl) and APP (CT20). Excess drug (Fen-B) and unlableled APP-CTF is detected in the flow-through from the beads (unbound lane). Biotin bound to streptavdin (SAv) is detected by the anti-biotin antibody. APP-CTF-83 is pulled down in lane 2 and is reactive with anti-biotin and anti-APP (CT20).
Congo red (CR) and chrysamine G (CG), two of the most well characterized amyloid-β dyes, act as GSMs in cell-free γ-secretase assays.

[7] = target: T4, APP-CTF (Homo sapiens, UniProt P05067); assay: Photoaffinity labelling of APP and APP CTF in H4 cell membrane fractions and competition; assay type: binding; details: microsomal membrane fractions from H4 cells expressing wild-type APP
T4 construct: this protein was designated α-secretase-derived APP CTF (CTF83) on the basis of molecular weight; expressed in transfected cells
T4 sequence (P05067 688-770 limits assumed): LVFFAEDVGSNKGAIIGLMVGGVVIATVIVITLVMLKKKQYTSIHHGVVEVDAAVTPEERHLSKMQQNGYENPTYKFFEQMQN
Protocol: Photoaffinity labelling. All experiments used the following general protocol. Samples (recombinant or synthetic peptides, cell lysates and membrane preparations) were exposed in borosilicate test tubes to ultraviolet light (350 nm) in a Rayonet Photoreactor R100 (RPR-3500 lamps, Southern New England Ultra Violet Company) in a cold room (4° C.) for 30 minutes or as otherwise noted. Crosslinked samples were analyzed by ELISA for biotin incorporation, or analyzed directly by SDS-PAGE (Criterion-XT, Bio-Rad), or after precipitation with streptavidin ultralink plus beads (Pierce). After immunblotting, proteins were detected using chemiluminesence (ECL Plus, GEHealthcare) or near-infrared fluorescence (LiCor Odyssey). Full-length APP and APP CTFs (CTF83, CTF99) were detected with CT20, a rabbit polyclonal antibody against the C-terminus of APP. Biotin was detected with an affinity-purified rabbit polyclonal antibody (Bethyl). Cell-based screens for amyloid-β modulation.

labeling of Aβ1-28 [2]: did not label
labeling of Aβ1-36 [2]: efficiently labeled
labeling of Aβ1-40 [2]: efficiently labeled
labeling of Flag-tagged Aβ25-36 [2]: preferentially label
labeling of CTF-γ (CTF-50) ([3]; peptides 5 μM, Fen-B 25 μM, 30 minutes): no evidence for binding to CTF-γ
Aβ42 in cell-free γ-secretase assay [6]: raise Aβ42 with similar potencies
labeling of full-length APP and APP CTFs [7]: labeled full-length APP and APP CTFs
Compound: CC(C)(Oc1ccc(C(=O)c2ccc(Cl)cc2)cc1)C(=O)NCCCCCNC(=O)CCCCC1SCC2NC(=O)NC21 (stereo not drawn) [Fen-B, N-(5-(2-(4-(4-chlorobenzoyl)phenoxy)-2-methylpropanamido)pentyl)-5-(2-oxo-hexahydro-1H-thieno[3,4-d]imidazol-4-yl)pentanamide]
Toxicity, based on cell morphology and XTT assay [1]: toxic at higher doses
Aβ42 increase ([1]; 33 μM, 6 hours): ~200%
labeling of APP(C100)-Flag [3]: label a recombinant APP c-secretase substrate (APP(C100)-Flag) with similar potency
labeling of Notch (C100)-Flag [4]: less efficient than Fen-B labeling of the APP(C100)-Flag
labeling of γ-secretase components [5]: Absence of PS1, NCT, APH1, and Pen2 labeling
